The text below walks through data of patent US5763450A, “Substituted benzyl pyrimidines” (Hoffmann-La Roche Inc., priority 1994, dated 1998).

Each structure is given as a SMILES string. Counter-ions that a name gives are not always drawn.

As a reminder, the IC50 is the concentration that inhibits the measured activity by half. A low value points to greater potency in that assay.

Test [1] concerns the target purified DHFR of the reference strain S. aureus ATCC 25923 (Staphylococcus aureus, UniProt P0A017). The test is described as follows: Inhibition of purified DHFR of reference strain S. aureus ATCC 25923. In kind it is biochemical.
The test system of test [2] is purified DHFR of the multi-resistant strain S. aureus 157/4696. Kind of test: Inhibition of purified DHFR of multi-resistant strain S. aureus 157/4696. Type of test: biochemical. The following applies: determined graphically. The procedure:
The inhibition of the enzyme was taken as a measurement for the antibacterial activity. It is determined using the method of Baccanari and Joyner (Biochemistry 20, 1710 (1981)); see also P. G. Hartman et al., FEB 242, 157-160 (1988).
The IC50 values (concentration at which the enzyme is inhibited to 50%) are determined graphically.
The following Table contains inhibitory concentrations determined in the above test for representative members of the class of compound defined by formula I. The C50 values (μM) are given against the purified DHFR of the reference strain S. aureus ATCC 35923 as well as against the purified DHFR of the multi-resistant strain S. aureus 157/4696. […] The inhibition constants of trimethoprim are also given as a comparison.

For test [3], the target named is T1, purified DHFR of the opportunistic pathogen P. carinii (Pneumocystis carinii, UniProt P16184).
T1 sequence (P16184 1-206): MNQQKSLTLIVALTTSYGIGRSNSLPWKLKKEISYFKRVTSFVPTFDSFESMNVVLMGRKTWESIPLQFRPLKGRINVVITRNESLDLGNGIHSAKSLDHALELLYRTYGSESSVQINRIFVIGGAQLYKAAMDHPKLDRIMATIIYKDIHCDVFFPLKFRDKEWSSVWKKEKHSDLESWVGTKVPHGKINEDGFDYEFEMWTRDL
The test is described as follows: biochemical. The following applies: determined graphically.

Chain of purified DHFR of the reference strain S. aureus ATCC 25923 (P0A017 whole entry): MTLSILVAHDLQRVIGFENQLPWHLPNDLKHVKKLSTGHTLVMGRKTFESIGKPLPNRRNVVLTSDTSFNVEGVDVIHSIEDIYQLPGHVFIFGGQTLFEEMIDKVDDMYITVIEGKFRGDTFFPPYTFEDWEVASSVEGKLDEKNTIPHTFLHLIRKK

For the molecule `COc1cc(Cc2cnc(N)nc2N)cc(-c2ccc3ccccc3c2)c1OC` [Example 4h, 5-(3,4-dimethoxy-5-naphthalen-2-yl-benzyl)pyrimidine-2,4-diamine], the IC50 in test [1] came out at 2.2 nM; in test [2], 1300 nM; in test [3], 1600 nM.
Turning to `COc1cc(Cc2cnc(N)nc2N)cc(-c2cccc(O)c2)c1OC` [Example 5b, 5-(3'-hydroxy-5,6-dimethoxy-biphenyl-3-ylmethyl)-pyrimidine-2,4-diamine], the figures for the IC50 in test [1], in test [2] and in test [3] were 4 nM, 2200 nM and 2300 nM, respectively.
The matching figures for `COc1cc(Cc2cnc(N)nc2N)cc(-c2ccc(C(=O)O)cc2)c1OC` [Example 5c, 5-(4'-carboxyl-5,6-dimethoxy-biphenyl-3-ylmethyl)-pyrimidine-2,4-diamine hydrochloride]: 0.9 nM, 420 nM and 480 nM.
For `COc1cc(Cc2cnc(N)nc2N)cc(-c2ccc3cc(O)ccc3c2)c1OC` [Example 5h, 5-(3,4-dimethoxy-5-naphthalen-6-hydroxy-2-yl-benzyl)-pyrimidine-2,4-diamine], the IC50 in test [1] came to 1.3 nM; in test [2], 500 nM; in test [3], 1000 nM.
The matching figures for `COc1cc(Cc2cnc(N)nc2N)cc(-c2cc3c(cc2F)c(=O)c(C(=O)O)cn3C2CC2)c1OC` [Example 9a, 1-cyclopropyl-7-[5-(2,4-diaminopyrimidin-5-ylmethyl)-2,3-dimethoxy-phenyl]-6-fluoro-1,4-dihydro-4-oxo-quinoline-3-carboxylic acid trifluoroacetate]: 0.9 nM, 50 nM and 19 nM.
For `COc1ccc(Cc2cnc(N)nc2N)cc1-c1cc2c(cc1F)c(=O)c(C(=O)O)cn2C1CC1` [Example 9b, 1-cyclopropyl-7-[5-(2,4-diamino-pyrimidin-5-ylmethyl)-2-methoxy-phenyl]-6-fluoro-1,4-dihydro-4-oxo-quinoline-3-carboxylic acid trifluoroacetate], in that order: 0.2 nM, 110 nM and 38 nM.
For `Nc1ncc(Cc2cccc(-c3cc4c(cc3F)c(=O)c(C(=O)O)cn4C3CC3)c2)c(N)n1` [Example 9c, 1-cyclopropyl-7-[5-(2,4-diamino-pyrimidin-5-ylmethyl)-phenyl]-6-fluoro-1,4-dihydro-4-oxo-quinoline-3-carboxylic acid], in that order: 1.9 nM, 210 nM and 200 nM.
Regarding `COc1cc(Cc2cnc(N)nc2N)cc(C=Cc2ccc3ccccc3c2)c1OC` [Example 10b, 5-[3,4-dimethoxy-5-(2-naphthalen-2-yl-vinyl)-benzyl]-pyrimidine-2,4-diamine], the IC50 in test [1] came out at 20 nM; in test [2], 750 nM; in test [3] it was 4000 nM.
Consider `CCOC(=O)c1cn(CC)c2cc(C#Cc3cc(Cc4cnc(N)nc4N)cc(OC)c3OC)ccc2c1=O` [Example 12g, ethyl 1-ethyl-7-[5-(2,4-diamino-pyrimidin-5-ylmethyl)-2,3-dimethoxy-phenylethynyl]-4-oxo-1,4-dihydro-quinoline-3-carboxylate], for which the IC50 was 5 nM in test [1], 130 nM in test [2] and 900 nM in test [3].
The matching figures for `COc1cc(Cc2cnc(N)nc2N)cc(C#Cc2ccc3ccccc3c2)c1OC` [Example 15a, 5-[3,4-dimethoxy-5-(naphthalen-2-ylethynyl)-benzyl]-pyrimidine-2,4-diamine]: 15 nM, 700 nM and 8000 nM.
Turning to `COc1cc(Cc2cnc(N)nc2N)cc(C#Cc2ccc3c(=O)c(C(=O)O)cn(C(C)(C)C)c3c2)c1OC` [Example 16ac, 1-tert-butyl-7-[5-(2,4-diamino-pyrimidin-5-ylmethyl)-2,3-dimethoxy-phenylethynyl]-4-oxo-1,4-dihydro-quinoline-3-carboxylate hydrochloride], the IC50 in test [1] came out at 0.9 nM; in test [2], 1.6 nM; in test [3], 190 nM.
As for `COc1cc(Cc2cnc(N)nc2N)cc(C#Cc2c(F)cc3c(=O)c(C(=O)O)cn(C4CC4)c3c2F)c1OC` [Example 16c, 1-cyclopropyl-7-[5-(2,4-diamino-pyrimidin-5ylmethyl)-2,3-dimethoxy-phenylethynyl]-6,8-difluoro-1,4-dihydro-4-oxo-quinoline-3-carboxylic acid hydrochloride], the IC50 was 1.2 nM in test [1], 2.4 nM in test [2] and 36 nM in test [3].
For `COc1cc(Cc2cnc(N)nc2N)cc(C#Cc2cc3c(cc2F)c(=O)c(C(=O)O)cn3C2CC2)c1OC` [Example 16e, 1-cyclopropyl-7-[5-(2,4-diamino-pyrimidin-5-ylmethyl)-2,3-dimethoxy-phenylethynyl]-6-fluoro-4-oxo-1,4-dihydro-quinoline-3-carboxylic acid trifluoroacetate], the IC50 worked out at 2.9 nM in test [1], 80 nM in test [2] and 3400 nM in test [3].
For `CCn1cc(C(=O)O)c(=O)c2cc(F)c(C#Cc3cc(Cc4cnc(N)nc4N)cc(OC)c3OC)cc21` [Example 16f, 1-ethyl-7-[5-(2,4-diamino-pyrimidin-5-ylmethyl)-2,3-dimethoxy-phenylethynyl]-6-fluoro-4-oxo-1,4-dihydro-quinoline-3-carboxylic acid hydrochloride], in that order: 1.5 nM, 6.5 nM and 280 nM.
On to `COc1cc(Cc2cnc(N)nc2N)cc(C#Cc2ccc3cc(C(=O)O)ccc3c2)c1OC` [Example 16j, 6-[5-(2,4-diamino-pyrimidin-5-ylmethyl)-2,3-dimethoxy-phenylethynyl]-naphthalene-2-carboxylic acid hydrochloride], for which the IC50 turned out to be 0.9 nM in test [1], 24 nM in test [2] and 5000 nM in test [3].
With `COc1cc(Cc2cnc(N)nc2N)cc(C#Cc2ccc3c(=O)c(C(=O)O)cn(Cc4ccccc4)c3c2)c1OC` [Example 16p, hydrochloride], the IC50 in test [1] was found to be 1.2 nM; in test [2], 1.3 nM; in test [3] it was 140 nM.
